Experimental data reported in ChEMBL document CHEMBL3525951, “Reevaluation of the microsomal metabolism of montelukast: major contribution by CYP2C8 at clinically relevant concentrations” (Drug Metab Dispos, 2011).

Key:
Type in all cases: ADME
[1] = molecular target: T1, Cytochrome P450 3A4 (Homo sapiens, UniProt P08684); assay: Activity of recombinant human CYP3A4 expressed in microsomes isolated from baculovirus infected insect cell assessed as enzyme-mediated compound formation treated with montelukast at 1 uM after 60 mins by LC-MS analysis; conditions: 1 h
[2] = molecular target: T2, Cytochrome P450 2C8 (Homo sapiens, UniProt P10632); assay: Activity of recombinant human CYP2C8 expressed in microsomes isolated from baculovirus infected insect cell assessed as enzyme-mediated compound formation treated with montelukast at 0.02 to 1 uM after 60 mins by LC-MS analysis; conditions: 1 h
T2 sequence (P10632 whole entry): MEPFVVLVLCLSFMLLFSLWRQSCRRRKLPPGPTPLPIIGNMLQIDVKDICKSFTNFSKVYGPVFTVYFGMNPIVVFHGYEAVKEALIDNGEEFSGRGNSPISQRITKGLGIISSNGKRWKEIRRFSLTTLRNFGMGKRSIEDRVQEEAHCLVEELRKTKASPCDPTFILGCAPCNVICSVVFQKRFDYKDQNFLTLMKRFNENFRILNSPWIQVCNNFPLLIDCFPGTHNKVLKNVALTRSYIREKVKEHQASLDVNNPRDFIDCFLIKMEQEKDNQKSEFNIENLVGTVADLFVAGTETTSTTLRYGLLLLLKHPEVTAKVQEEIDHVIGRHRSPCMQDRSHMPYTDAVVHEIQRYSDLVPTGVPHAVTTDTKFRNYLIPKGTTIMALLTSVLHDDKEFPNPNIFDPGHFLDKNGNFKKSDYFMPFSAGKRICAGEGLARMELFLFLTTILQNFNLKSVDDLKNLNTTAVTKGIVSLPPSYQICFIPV

[3] = molecular target: T3, Cytochrome P450 3A5 (Homo sapiens, UniProt P20815); assay: Activity of recombinant human CYP3A5 expressed in microsomes isolated from baculovirus infected insect cell assessed as enzyme-mediated compound formation treated with montelukast at 1 uM after 60 mins by LC-MS analysis; conditions: 1 h
[4] = molecular target: T2, Cytochrome P450 2C8; assay: Activity of recombinant human CYP2C8 expressed in microsomes isolated from baculovirus infected insect cell assessed as enzyme-mediated compound formation treated with montelukast at 0.02 to 0.1 uM after 3 mins by LC-MS analysis; conditions: 0.05 h
[5] = system: Liver microsome; assay: Drug level in human liver microsomes treated with montelukast at 0.02 to 0.4 uM preincubated for 3 mins followed by beta-NADPH addition by LC-MS analysis
[6] = molecular target: T4, Cytochrome P450 2C19 (Homo sapiens, UniProt P33261); assay: Activity of recombinant human CYP2C19 expressed in microsomes isolated from baculovirus infected insect cell assessed as enzyme-mediated compound formation treated with montelukast at 1 uM after 60 mins by LC-MS analysis; conditions: 1 h
[7] = molecular target: T5, Cytochrome P450 2C9 (Homo sapiens, UniProt P11712); assay: Activity of recombinant human CYP2C9 expressed in microsomes isolated from baculovirus infected insect cell assessed as enzyme-mediated compound formation treated with montelukast at 1 uM after 60 mins by LC-MS analysis; conditions: 1 h
[8] = molecular target: Cytochrome P450 2D6 (Homo sapiens, UniProt P10635); assay: (§1) Activity of recombinant human CYP2D6 expressed in microsomes isolated from baculovirus infected insect cell assessed as enzyme-mediated 2-(2-((R)-3-((1-(carboxymethyl)cyclopropyl)methylthio)-3-(3-(2-(7-chloroquinolin-2-yl)vinyl)phenyl)propyl)phenyl)-2-hydroxypropanoic acid formation at 1 uM after 30 mins by LC-MS analysis; conditions: 0.5 h
[9] = molecular target: T4, Cytochrome P450 2C19; assay: as §1, with “CYP2C19” for “CYP2D6”; conditions: 0.5 h
[10] = molecular target: Cytochrome P450 2E1 (Homo sapiens, UniProt P05181); assay: as §1, with “CYP2E1” for “CYP2D6”; conditions: 0.5 h
[11] = molecular target: T6, Cytochrome P450 2B6 (Homo sapiens, UniProt P20813); assay: as §1, with “CYP2B6” for “CYP2D6”; conditions: 0.5 h
T6 sequence (P20813 whole entry): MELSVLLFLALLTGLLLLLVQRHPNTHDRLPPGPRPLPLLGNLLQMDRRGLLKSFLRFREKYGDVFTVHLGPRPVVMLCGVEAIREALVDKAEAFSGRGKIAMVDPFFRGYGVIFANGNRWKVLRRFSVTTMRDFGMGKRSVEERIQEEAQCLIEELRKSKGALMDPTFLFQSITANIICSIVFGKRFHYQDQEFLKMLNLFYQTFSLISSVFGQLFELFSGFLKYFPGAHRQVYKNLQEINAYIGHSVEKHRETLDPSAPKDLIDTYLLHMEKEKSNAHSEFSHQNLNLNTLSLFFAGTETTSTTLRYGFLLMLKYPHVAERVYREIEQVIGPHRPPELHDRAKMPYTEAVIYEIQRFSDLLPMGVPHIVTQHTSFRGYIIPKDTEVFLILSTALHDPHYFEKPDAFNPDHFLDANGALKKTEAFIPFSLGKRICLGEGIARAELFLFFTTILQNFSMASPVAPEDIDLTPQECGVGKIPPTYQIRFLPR

[12] = molecular target: T7, Cytochrome P450 1A2 (Homo sapiens, UniProt P05177); assay: as §1, with “CYP1A2” for “CYP2D6”; conditions: 0.5 h
T7 sequence (P05177 whole entry): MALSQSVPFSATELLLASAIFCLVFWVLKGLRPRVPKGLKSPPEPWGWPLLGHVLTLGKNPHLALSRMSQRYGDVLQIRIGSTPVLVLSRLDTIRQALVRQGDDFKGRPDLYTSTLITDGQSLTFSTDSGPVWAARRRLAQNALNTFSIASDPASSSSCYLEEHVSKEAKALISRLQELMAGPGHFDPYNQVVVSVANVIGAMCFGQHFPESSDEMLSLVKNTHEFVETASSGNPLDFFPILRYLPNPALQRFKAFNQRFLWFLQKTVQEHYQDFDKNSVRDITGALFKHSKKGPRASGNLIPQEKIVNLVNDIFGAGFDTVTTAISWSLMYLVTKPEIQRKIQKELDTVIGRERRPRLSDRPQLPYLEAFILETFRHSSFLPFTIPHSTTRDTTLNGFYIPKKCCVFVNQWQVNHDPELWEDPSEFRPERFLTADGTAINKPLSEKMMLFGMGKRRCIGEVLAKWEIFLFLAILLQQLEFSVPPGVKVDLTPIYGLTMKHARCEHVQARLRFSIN

[13] = molecular target: T5, Cytochrome P450 2C9; assay: as §1, with “human CYP2C9” for “human CYP2D6”, “at 0.02” for “at 1”; conditions: 0.5 h
[14] = molecular target: T8, Cytochrome P450 2A6 (Homo sapiens, UniProt P11509); assay: as §1, with “CYP2A6” for “CYP2D6”; conditions: 0.5 h
T8 sequence (P11509 whole entry): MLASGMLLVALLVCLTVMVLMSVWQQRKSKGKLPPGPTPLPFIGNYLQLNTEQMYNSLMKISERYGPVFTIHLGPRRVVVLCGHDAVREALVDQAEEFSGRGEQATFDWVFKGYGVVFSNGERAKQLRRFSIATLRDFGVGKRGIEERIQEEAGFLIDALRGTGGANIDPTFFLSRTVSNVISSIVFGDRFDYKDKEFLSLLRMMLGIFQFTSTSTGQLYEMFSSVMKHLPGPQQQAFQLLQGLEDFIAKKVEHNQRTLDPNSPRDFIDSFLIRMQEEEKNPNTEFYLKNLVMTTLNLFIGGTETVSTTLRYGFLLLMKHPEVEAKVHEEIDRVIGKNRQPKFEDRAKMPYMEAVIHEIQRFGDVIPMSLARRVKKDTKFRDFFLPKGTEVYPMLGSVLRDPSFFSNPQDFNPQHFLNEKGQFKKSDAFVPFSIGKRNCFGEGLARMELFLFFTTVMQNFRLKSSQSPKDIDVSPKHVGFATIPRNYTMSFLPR

[15] = molecular target: T1, Cytochrome P450 3A4; assay: as §1, with “human CYP3A4” for “human CYP2D6”, “at 0.02” for “at 1”; conditions: 0.5 h
[16] = molecular target: T2, Cytochrome P450 2C8; assay: as §1, with “human CYP2C8” for “human CYP2D6”, “at 0.02” for “at 1”; conditions: 0.5 h
[17] = molecular target: T5, Cytochrome P450 2C9; assay: Activity of recombinant human CYP2C9 expressed in microsomes isolated from baculovirus infected insect cell assessed as enzyme-mediated compound formation treated with montelukast at 0.02 to 0.1 uM after 12 mins by LC-MS analysis; conditions: 0.2 h
[18] = molecular target: T3, Cytochrome P450 3A5; assay: as §1, with “CYP3A5” for “CYP2D6”; conditions: 0.5 h

T5 sequence (P11712 whole entry): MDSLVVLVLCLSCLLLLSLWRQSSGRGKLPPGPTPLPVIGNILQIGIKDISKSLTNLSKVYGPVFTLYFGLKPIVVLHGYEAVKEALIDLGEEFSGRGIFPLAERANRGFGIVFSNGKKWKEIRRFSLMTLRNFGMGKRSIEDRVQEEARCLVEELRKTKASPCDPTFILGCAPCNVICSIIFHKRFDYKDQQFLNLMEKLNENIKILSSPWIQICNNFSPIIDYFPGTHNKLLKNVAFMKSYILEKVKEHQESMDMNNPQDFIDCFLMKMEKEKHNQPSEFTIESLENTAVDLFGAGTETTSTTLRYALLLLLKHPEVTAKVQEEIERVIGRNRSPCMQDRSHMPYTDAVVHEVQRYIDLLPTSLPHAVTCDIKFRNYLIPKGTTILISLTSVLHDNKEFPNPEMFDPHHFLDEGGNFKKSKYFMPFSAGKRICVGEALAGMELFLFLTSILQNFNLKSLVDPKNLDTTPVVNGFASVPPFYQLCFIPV
T1 sequence (P08684 whole entry): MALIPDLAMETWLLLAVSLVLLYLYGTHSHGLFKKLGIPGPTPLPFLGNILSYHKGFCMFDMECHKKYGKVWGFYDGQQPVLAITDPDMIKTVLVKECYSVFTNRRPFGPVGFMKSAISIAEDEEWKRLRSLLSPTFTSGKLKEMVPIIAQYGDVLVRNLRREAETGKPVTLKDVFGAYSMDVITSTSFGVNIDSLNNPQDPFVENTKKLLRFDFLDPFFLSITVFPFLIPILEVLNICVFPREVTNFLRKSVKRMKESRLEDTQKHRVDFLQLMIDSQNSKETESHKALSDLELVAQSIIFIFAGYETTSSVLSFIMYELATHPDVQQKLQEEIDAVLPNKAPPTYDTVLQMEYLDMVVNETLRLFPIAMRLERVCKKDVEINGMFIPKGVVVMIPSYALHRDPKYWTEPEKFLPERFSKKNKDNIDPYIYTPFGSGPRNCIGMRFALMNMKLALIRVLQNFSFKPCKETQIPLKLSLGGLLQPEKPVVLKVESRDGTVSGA
T4 sequence (P33261 whole entry): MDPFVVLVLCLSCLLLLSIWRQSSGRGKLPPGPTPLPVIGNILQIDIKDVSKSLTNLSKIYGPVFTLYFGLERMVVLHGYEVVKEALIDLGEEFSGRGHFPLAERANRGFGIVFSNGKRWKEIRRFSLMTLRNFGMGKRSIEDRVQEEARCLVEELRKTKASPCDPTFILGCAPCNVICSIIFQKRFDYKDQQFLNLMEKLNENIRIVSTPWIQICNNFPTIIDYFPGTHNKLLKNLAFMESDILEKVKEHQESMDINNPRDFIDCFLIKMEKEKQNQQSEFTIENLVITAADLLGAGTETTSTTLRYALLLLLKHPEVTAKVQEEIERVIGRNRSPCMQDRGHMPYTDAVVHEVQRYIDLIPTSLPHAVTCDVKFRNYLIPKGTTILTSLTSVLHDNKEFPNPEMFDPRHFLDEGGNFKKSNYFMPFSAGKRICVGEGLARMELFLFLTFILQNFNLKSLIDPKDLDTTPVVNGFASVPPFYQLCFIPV
T3 sequence (P20815 whole entry): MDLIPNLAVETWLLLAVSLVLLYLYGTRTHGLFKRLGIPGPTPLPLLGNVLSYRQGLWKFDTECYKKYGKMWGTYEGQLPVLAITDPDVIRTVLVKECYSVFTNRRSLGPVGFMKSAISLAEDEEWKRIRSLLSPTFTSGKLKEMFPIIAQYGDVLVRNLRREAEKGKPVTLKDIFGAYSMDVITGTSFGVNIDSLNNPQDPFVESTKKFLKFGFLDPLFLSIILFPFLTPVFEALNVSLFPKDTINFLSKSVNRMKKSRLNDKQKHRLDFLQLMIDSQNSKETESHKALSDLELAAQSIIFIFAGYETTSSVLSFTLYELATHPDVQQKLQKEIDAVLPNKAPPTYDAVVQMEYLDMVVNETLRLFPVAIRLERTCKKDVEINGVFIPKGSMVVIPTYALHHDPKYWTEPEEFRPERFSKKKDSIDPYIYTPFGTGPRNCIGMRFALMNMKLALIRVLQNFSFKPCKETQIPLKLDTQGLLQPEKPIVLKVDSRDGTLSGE
Chain of Cytochrome P450 2D6 (P10635 whole entry): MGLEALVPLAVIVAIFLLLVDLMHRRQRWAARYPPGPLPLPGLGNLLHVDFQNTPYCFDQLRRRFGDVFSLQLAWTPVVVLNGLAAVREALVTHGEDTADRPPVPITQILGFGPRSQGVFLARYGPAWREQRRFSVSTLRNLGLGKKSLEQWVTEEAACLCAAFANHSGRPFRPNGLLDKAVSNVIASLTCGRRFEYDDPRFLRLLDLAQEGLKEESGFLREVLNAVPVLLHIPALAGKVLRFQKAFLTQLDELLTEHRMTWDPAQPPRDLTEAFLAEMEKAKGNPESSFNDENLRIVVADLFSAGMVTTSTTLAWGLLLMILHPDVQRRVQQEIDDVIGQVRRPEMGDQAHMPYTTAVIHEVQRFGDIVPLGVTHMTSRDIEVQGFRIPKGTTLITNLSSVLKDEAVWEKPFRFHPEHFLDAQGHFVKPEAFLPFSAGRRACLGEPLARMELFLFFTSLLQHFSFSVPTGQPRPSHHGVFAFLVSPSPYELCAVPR
Chain of Cytochrome P450 2E1 (P05181 whole entry): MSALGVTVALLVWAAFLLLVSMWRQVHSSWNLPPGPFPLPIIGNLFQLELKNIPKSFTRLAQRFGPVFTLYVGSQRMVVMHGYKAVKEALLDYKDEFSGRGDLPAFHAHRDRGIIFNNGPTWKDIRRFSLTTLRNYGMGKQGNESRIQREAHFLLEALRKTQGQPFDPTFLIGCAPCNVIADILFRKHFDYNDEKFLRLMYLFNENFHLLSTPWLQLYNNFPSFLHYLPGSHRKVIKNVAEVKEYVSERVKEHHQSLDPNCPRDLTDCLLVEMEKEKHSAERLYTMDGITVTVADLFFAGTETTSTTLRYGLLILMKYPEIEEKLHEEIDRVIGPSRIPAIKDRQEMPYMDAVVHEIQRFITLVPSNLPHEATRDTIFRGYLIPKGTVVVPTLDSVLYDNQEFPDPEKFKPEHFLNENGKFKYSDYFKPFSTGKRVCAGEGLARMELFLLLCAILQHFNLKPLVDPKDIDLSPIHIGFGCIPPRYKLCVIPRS

| Drug metabolism [1] | Drug metabolism [2] | Drug metabolism [3] | Drug metabolism [4] | Drug metabolism [5] | Drug metabolism [6] | Drug metabolism [7] | Drug metabolism [8] | Drug metabolism [9] | Drug metabolism [10] | Drug metabolism [11] | Drug metabolism [12] | Drug metabolism [13] | Drug metabolism [14] | Drug metabolism [15] | Drug metabolism [16] | Drug metabolism [17] | Drug metabolism [18] | Compound |
| --- | --- | --- | --- | --- | --- | --- | --- | --- | --- | --- | --- | --- | --- | --- | --- | --- | --- | --- |
| metabolite_detected | metabolite_detected | metabolite_detected | metabolite_detected | metabolite_detected | metabolite_detected | metabolite_detected | – | – | – | – | – | – | – | – | – | – | – | CC(C)(O)c1cc(O)ccc1CC[C@@H](SCC1(CC(=O)O)CC1)c1cccc(/C=C/c2ccc3ccc(Cl)cc3n2)c1 |
| – | metabolite_detected | – | metabolite_detected | metabolite_detected | – | metabolite_detected | metabolite_not_detected | metabolite_not_detected | metabolite_not_detected | metabolite_not_detected | metabolite_not_detected | metabolite_not_detected | metabolite_not_detected | metabolite_not_detected | metabolite_detected | metabolite_detected | metabolite_not_detected | CC(O)(CO)c1ccccc1CC[C@@H](SCC1(CC(=O)O)CC1)c1cccc(/C=C/c2ccc3ccc(Cl)cc3n2)c1 (some centres not stated) |
